Melting point data for 89 compounds are collected here from a melting point compilation (Tetko et al.; mined from patent text by program, amines drawn as free bases though some values may be those of a salt).

As a reminder, the melting point is the temperature, or range, at which the solid turns liquid. Compound `C=CCC(O)(C(=O)c1ccc(C)cc1)c1ccc(C)cc1` (centres undefined) had a melting point of 38 to 40 °C. The compound `O=C(NCc1ccc2ccccc2c1)C1=C(C(=O)Nc2cc(OC3CCCC3)c(Cl)cc2F)CCCC1` yielded a melting point of 174 to 175 °C. With `NC(=O)N(O)CCOc1ccc2c(c1)CCN(Cc1ccc(-c3ccc(F)cc3)cc1)C2=O`, the melting point lay in the range of 171 to 172 °C. Next, `CC1COCc2nc3cnc4cc(Br)ccc4c3n21` (centres undefined): 207 to 209 °C; `COc1cc(COc2nn(-c3ccccc3)cc2/C=C/C(C)=O)ccc1OCc1nc(-c2ccco2)oc1C`: 177 to 178 °C. In the case of `NC(=O)c1c2ccsc2nc2c1c1ccccc1n2Cc1ccccc1`, the melting point lay in the range of 242 to 245 °C. The figure for `CCNc1cccc(NC(=O)COC(C)=O)c1C#N` is 110 to 113 °C; for `CSCC[C@H](NC(=O)c1cc(NC(Cn2ccnc2)c2ccc(F)cc2)ccc1Cc1ccc(F)cc1)C(=O)O` (some centres undefined) it is 130 to 135 °C. The figure for `Cc1cc2[nH]c(C)nc(NCCN3CCOCC3)c-2n1` is 237 to 238 °C. Next, `O=C(Nc1ccccc1S(=O)(=O)NCCCn1cccn1)c1cccc(C(F)(F)F)c1`: 108 to 111 °C; `CCOC(=O)c1cn(CC)c2cc(-c3csc(C(C)NC(C)=O)n3)c(F)cc2c1=O` (centres undefined): 236 to 238 °C.

`CN1OCC(=Cc2cc(C(C)(C)C)c(O)c(C(C)(C)C)c2)C1=O` showed a melting point of 194 to 196 °C. Consider `c1ccc(N2CCN(CCc3cc4ccccc4[nH]3)CC2)cc1`, for which the melting point was 184 to 186 °C.

With `C#CCOc1nc(NN)c(C(F)(F)F)cc1Cl`, the melting point fell in the range of 98 to 102 °C. The figure for `O=C(c1cccnc1)N1CCC(c2ccc(Br)cc2)=N1` is 117 to 119 °C. In turn, `O=C(O)[C@H](Cc1cccc(OCC(F)(F)C(F)F)c1)[C@@H](O)c1ccc(F)cc1` (racemic) showed a melting point of 114 to 115 °C. Next, `CCCCCCN(CCCCCC)C(Nc1ccc(-c2ccccc2)cc1)=C1C(=O)COC1=O`: 138 to 140 °C. On to `NC(C=Cc1cccc(Cl)c1)=NO`, for which the melting point fell in the range of 195 to 197 °C. Turning to `O=Cc1ccc(Br)cc1C=O`, the melting point lay within 97 to 100 °C. Next, `COc1ccc(NC(=O)NC/C=C2\CCCc3ccc(OC)cc32)cc1`: 168 to 170 °C. The figure for `CCC1(C)CC(=NO)C(C)C(C)(CC)N1OC(C)c1ccccc1` (centres undefined) is 130 to 145 °C. Next, `CC(C)(C)OC(=O)NC1CCN(C/C=C\CC(c2ccccc2)c2ccccc2)CC1`: 105 to 108 °C.

`O=Cc1cc2ccc3ccc4ccccc4c3c2o1` gave a melting point of 169 °C. Next, `COc1ccccc1N1CCN(CCCNC(=O)c2cccc3c(=O)c(O)c(-c4ccccc4)oc23)CC1`: 196 to 199 °C; `O=C(Nc1nc(C(F)(F)F)c(Cl)s1)c1ccc(Cl)c([N+](=O)[O-])c1`: 183 to 184 °C.

Compound `CC(=O)c1ccc(-c2c(C)c(NC(=O)CC(C)(C)C)c(C)c3c2OCC3c2ccc(C(C)C)cc2)s1` (centres undefined) showed a melting point of 157 to 158 °C. Take `COc1ccc2c(c1)Sc1ccccc1CN2C=O`: the melting point lay within 98 to 100 °C. As for `CCOc1nn(C)c(C(F)(F)F)c1CS(=O)(=O)C1=NOC(C)(C)C1`, the melting point fell in the range of 124 to 125 °C. For `O=C(NC1CCN(c2ccccc2)C1)c1ccc([N+](=O)[O-])cc1` (centres undefined), the melting point was 153 to 155 °C. Next, `Cc1cc([N+](=O)[O-])cc(C)c1NS(=O)(=O)CCSCCN`: 159 °C; `Cc1noc(NS(=O)(=O)c2ccc(Cl)c(Cl)c2Cl)c1Br`: 110 to 113 °C; `COc1ccc(CCNC[C@H](O)COc2ccc(-c3nc(Br)c[nH]3)cc2Cl)cc1OC`: 172 to 174 °C. On to `CCOP(=O)(/C=C/c1cn(-c2ccccc2)nc1OCc1ccc(OCc2nc(-c3ccc(C)c(C(=O)O)c3)oc2CC)c(OC)c1)OCC`, for which the melting point fell in the range of 165 to 166 °C. In the case of `CC(C)(C)OC(=O)COCCCCCCn1nc(-c2ccccc2)c(-c2ccccc2)c1-c1ccccc1`, the melting point is 69 to 72 °C. In turn, `NC(=O)C(CCCCCCCCCCCCC(C(N)=O)C1CC1)C1CC1` (centres undefined) yielded a melting point of 157 to 158 °C.

Compound `Nc1nc(Cl)c(Cl)nc1C=Nc1ccc(Cl)cc1` displayed a melting point of 179 to 182 °C. Next, `CN(NC(=O)OC(C)(C)C)C(=O)C(C)(C)ON=C(C(=O)O)c1csc(N)n1`: 145 °C; `CCCCCCC#CC(O)C1=Nc2ccc(F)cc2C(=O)C1C` (centres undefined): 153 to 154 °C; `CCOc1ccc2[nH]c3c([N+](=O)[O-])ccc(Cl)c3c(=O)c2c1`: 244 to 246 °C. `Cc1cc(C(=O)CBr)cn1S(=O)(=O)c1ccccc1` returned a melting point of 86 to 88 °C. The figure for `CCOC(=O)c1nc(-c2ccc(Cl)c(OC)c2F)cc(N)c1SC` is 93 to 94 °C; for `CS(=O)(=O)c1ccc(-c2cnn(Cc3ccccc3)c(=O)c2-c2ccc(Cl)cc2)cc1` it is 157 to 159 °C; for `CCOC1C(NC(=O)C(F)(F)F)CC(OC)OC1C` (centres undefined) it is 183 to 185 °C. The figure for `Cc1cc(-c2ccccc2)nc(SSc2nc(-c3ccccc3)cc(C)c2C#N)c1C#N` is 200 to 201 °C; for `O=C1CCC(N2Cc3cc(CNC(=O)c4ccccc4)ccc3C2=O)C(=O)N1` (centres undefined) it is 266 to 268 °C; for `O=C(NCCN1CCC(O)(c2ccc(Cl)cc2)CC1)c1ccc(F)cc1[N+](=O)[O-]` it is 144 °C. In turn, `Cc1cn(C(C)C(=O)N(C)C)nc1-c1ccccc1Cl` (centres undefined) gave a melting point of 98.5 to 100 °C. The compound `O=C(c1cc2ccnc(Cl)c2[nH]1)N1CCOCC1` registered a melting point of 170 to 171 °C. In turn, `COc1cc(Cc2cnc(N)nc2N)cc2cccnc12` displayed a melting point of 285 to 287 °C. `CSCc1nnnn1C1CCN(c2ccc(N3C[C@H](CNC(C)=O)OC3=O)cc2F)CC1`: the melting point was 118 to 119 °C. Next, `CCCn1c(CC)c2c3c(cccc31)C1CC(NC(=S)N(CC)CC)CN(C)C1C2` (centres undefined): 173 to 175 °C. For the compound `CCOc1cccc(NCCSCc2[nH]cnc2C)n1`, the melting point worked out at 172 °C. Next, `N#CC(Cc1ccccc1)(Cc1ccccc1)C(=O)O`: 194 °C; `O=C(CCCCCN1CCN(c2cccc(C(F)(F)F)c2)CC1)N1Cc2ccc(C(=O)N3CCCCC3)cc2C1`: 91 °C. The figure for `CCOC(=O)c1c(-c2ccc(O)cc2)c(C#N)c(=O)n2ccccc12` is 284 to 290 °C; for `Cc1nc(N)sc1S(=O)(=O)NC(C)(CO)CO` it is 170 °C.

With `CNc1nc(-c2ccco2)c2ncn(Cc3ccc(OC)cc3)c2n1`, the melting point is 144 to 145 °C. In the case of `COc1ccccc1Oc1c(NS(=O)(=O)c2ccc(C)cn2)nc(-c2ccncc2)nc1OC`, the melting point lay within 225 to 226 °C. The figure for `CCCCN1C(=O)NC(Cc2cc(OC)c(OC)cc2OC)C1=O` (centres undefined) is 122 °C. The figure for `N#CC=Cc1ccc(Cl)cc1C(=O)c1ccccc1Cl` is 137 to 139 °C; for `C[C@]1(COc2ccc3cc(N4CCC(Oc5ccc(OC(F)(F)F)cc5)CC4)ccc3c2)Cn2cc([N+](=O)[O-])nc2O1` it is 205 to 208 °C.

`COc1ccc([C@@H](CC(N)=O)N2Cc3ccccc3C2=O)cc1OC`: the melting point lay within 191 to 193 °C. The figure for `O[C@@H]1CNC[C@H]1Oc1cccc2ccccc12` (relative stereo) is 112 to 115 °C; for `CCCCCCCCc1ccc(C#Cc2c3ccccc3c(C#Cc3ccc(CCCCCCCC)cc3)c3ccccc23)cc1` it is 131 to 133 °C; for `CN1CC2c3cccn3Cc3ccccc3N2C(=O)C1=O` (centres undefined) it is 178 to 179 °C. In turn, `Cn1cc(/C=C/C#N)c2ccccc21` yielded a melting point of 91 to 94 °C. `CC1(C)OC(=S)Nc2ccc(-c3ccccc3Cl)cc21` registered a melting point of 171 to 172 °C. For `CCC(CC)(CC(=O)Nc1cccc(OCc2ccc3ccc(OCc4ccccc4)cc3n2)c1)C(=O)O`, the melting point lay within 89 to 95 °C. Compound `CC(C)OCC1(C(F)(F)F)c2cc(C#N)ccc2Nc2ncc(Br)cc21` (centres undefined) displayed a melting point of 76 to 77 °C. The figure for `COC(=O)c1cc(N)cs1` is 76 to 78 °C; for `CCCCc1nc(C)n2nc(S)nc2c1Cc1ccc(-c2ccccc2)c(-c2nnn[nH]2)c1` it is 135 to 137 °C. As for `Cc1ccc(C(c2ccc(C)cc2)N2CCCC2)cc1`, the melting point lay within 61 to 63 °C.

With `Cc1ccc2nc(-c3cc(C(F)(F)C(F)(F)F)nn3-c3ccc(S(C)(=O)=O)cc3)sc2c1`, the melting point was 195 to 196 °C. Take `CCN(CC)C(=O)Nc1ccc(S(=O)(=O)N2C(=O)C(N[C@@H](C)C(=O)OC)(c3ccccc3Cl)c3cc(Cl)ccc32)cc1` (some centres undefined): the melting point turned out to be 204 °C. Consider `O=C1NCCCN1N=Cc1ccccc1`, for which the melting point stood at 190 °C.

In the case of `COc1cc2ncnc(N3CCC(C(C)(O)CN4CCC(C)NS4(=O)=O)CC3)c2cc1OC` (centres undefined), the melting point is 186 to 188 °C. Consider `Cc1c2c(c(C)c(NC(=O)CC(C)(C)C)c1-c1ccccc1)C(c1ccc(C(C)C)cc1)CO2` (centres undefined), for which the melting point lay in the range of 212 to 213 °C. The figure for `O=C(Nc1nccs1)c1cnc2ccccc2c1O` is 349 to 350 °C.

Turning to `CCCCCCCCc1ccc(C(=O)NN)cc1`, the melting point is 90 °C. Next, `C=C(C)C(=O)NCCCNC(=O)CC(C)=O`: 93 to 94 °C; `CSc1ccc(C(=O)CC(=O)C2CC2)c2c1OC(F)(F)O2`: 46 to 47 °C. Next, `CN(C)CCCCCCOc1ccc(C(=O)/C=C/c2ccccc2)cc1`: 43 to 46 °C; `CC(C)(C)NS(=O)(=O)c1cccc(F)n1`: 88 to 90 °C; `Cc1nc2ccccc2c(NCC(C)O)c1Br` (centres undefined): 147 to 149 °C. The figure for `COc1ccc(C(=O)C2CCCCC2C(=O)O)cc1OC` (centres undefined) is 171 to 175 °C; for `COc1ccc(C(=O)Nc2ccc(Cl)c(Cl)c2)cc1Nc1cccc(C(F)(F)F)c1` it is 154 to 155 °C. Turning to `Cc1cc(O)ccc1NC(=O)OC(C)(C)C`, the melting point is 143 to 144 °C. Next, `OCc1cccc(-n2cccc2)n1`: 55 °C; `CCCCN1C(=O)c2c(c(C)nn2C)Nc2ncccc21`: 144 to 146 °C.
